# Molecular target: T1, ΔF508-CFTR (Homo sapiens, UniProt P13569, DEL508-508)
# T1 construct: expressed in transfected cells
# Assay: Membrane potential optical assay, identification of correction compounds (ΔF508-CFTR correction)
# Format: cell-based
# Conditions: PercentActivity; NIH3T3 mouse fibroblasts stably expressing ΔF508-CFTR; 16-24 hrs with compound; read-out: Binned Max Efficacy
# Source text: Membrane potential optical methods for assaying ΔF508-CFTR modulation properties of compounds.
# The assay utilizes fluorescent voltage sensing dyes to measure changes in membrane potential using a fluorescent plate reader (e.g., FLIPR III, Molecular Devices, Inc.) as a readout for increase in functional ΔF508-CFTR in NIH 3T3 cells. The driving force for the response is the creation of a chloride ion gradient in conjunction with channel activation by a single liquid addition step after the cells have previously been treated with compounds and subsequently loaded with a voltage sensing dye.
# To identify small molecules that correct the trafficking defect associated with ΔF508-CFTR; a single-addition HTS assay format was developed. Assay Plates containing cells are incubated for ˜2-4 hours in tissue culture incubator at 37° C., 5% CO2, 90% humidity. Cells are then ready for compound exposure after adhering to the bottom of the assay plates.
# The cells were incubated in serum-free medium for 16-24 firs in tissue culture incubator at 37° C., 5% CO2, 90% humidity in the presence or absence (negative control) of test compound. The cells were subsequently rinsed 3× with Krebs Ringers solution and loaded with a voltage sensing redistribution dye. To activate ΔF508-CFTR, 10 μM forskolin and the CFTR potentiator, genistein (20 μM), were added along with Cl^−-free medium to each well. The addition of Cl^−-free medium promoted Cl^− efflux in response to ΔF508-CFTR activation and the resulting membrane depolarization was optically monitored using voltage sensor dyes.
# Bath Solution #1: (in mM) NaCl 160, KCl 4.5, CaCl2 2, MgCl2 1, HEPES 10, pH 7.4 with NaOH.
# Chloride-free bath solution: Chloride salts in Bath Solution #1 are substituted with gluconate salts.
# NIH3T3 mouse fibroblasts stably expressing ΔF508-CFTR are used for optical measurements of membrane potential. The cells are maintained at 37° C. in 5% CO2 and 90% humidity in Dulbecco's modified Eagle's medium supplemented with 2 mM glutamine, 10% fetal bovine serum, 1×NEAA, β-ME, 1× pen/strep, and 25 mM HEPES in 175 cm^2 culture flasks. For all optical assays, the cells were seeded at ˜20,000/well in 384-well matrigel-coated plates and cultured for 2 hrs at 37° C. before culturing at 27° C. for 24 hrs. for the potentiator assay. For the correction assays, the cells are cultured at 27° C. or 37° C. with and without compounds for 16-24 hours.
# T1 sequence (P13569 with tags, fused parts or gaps DEL508-508): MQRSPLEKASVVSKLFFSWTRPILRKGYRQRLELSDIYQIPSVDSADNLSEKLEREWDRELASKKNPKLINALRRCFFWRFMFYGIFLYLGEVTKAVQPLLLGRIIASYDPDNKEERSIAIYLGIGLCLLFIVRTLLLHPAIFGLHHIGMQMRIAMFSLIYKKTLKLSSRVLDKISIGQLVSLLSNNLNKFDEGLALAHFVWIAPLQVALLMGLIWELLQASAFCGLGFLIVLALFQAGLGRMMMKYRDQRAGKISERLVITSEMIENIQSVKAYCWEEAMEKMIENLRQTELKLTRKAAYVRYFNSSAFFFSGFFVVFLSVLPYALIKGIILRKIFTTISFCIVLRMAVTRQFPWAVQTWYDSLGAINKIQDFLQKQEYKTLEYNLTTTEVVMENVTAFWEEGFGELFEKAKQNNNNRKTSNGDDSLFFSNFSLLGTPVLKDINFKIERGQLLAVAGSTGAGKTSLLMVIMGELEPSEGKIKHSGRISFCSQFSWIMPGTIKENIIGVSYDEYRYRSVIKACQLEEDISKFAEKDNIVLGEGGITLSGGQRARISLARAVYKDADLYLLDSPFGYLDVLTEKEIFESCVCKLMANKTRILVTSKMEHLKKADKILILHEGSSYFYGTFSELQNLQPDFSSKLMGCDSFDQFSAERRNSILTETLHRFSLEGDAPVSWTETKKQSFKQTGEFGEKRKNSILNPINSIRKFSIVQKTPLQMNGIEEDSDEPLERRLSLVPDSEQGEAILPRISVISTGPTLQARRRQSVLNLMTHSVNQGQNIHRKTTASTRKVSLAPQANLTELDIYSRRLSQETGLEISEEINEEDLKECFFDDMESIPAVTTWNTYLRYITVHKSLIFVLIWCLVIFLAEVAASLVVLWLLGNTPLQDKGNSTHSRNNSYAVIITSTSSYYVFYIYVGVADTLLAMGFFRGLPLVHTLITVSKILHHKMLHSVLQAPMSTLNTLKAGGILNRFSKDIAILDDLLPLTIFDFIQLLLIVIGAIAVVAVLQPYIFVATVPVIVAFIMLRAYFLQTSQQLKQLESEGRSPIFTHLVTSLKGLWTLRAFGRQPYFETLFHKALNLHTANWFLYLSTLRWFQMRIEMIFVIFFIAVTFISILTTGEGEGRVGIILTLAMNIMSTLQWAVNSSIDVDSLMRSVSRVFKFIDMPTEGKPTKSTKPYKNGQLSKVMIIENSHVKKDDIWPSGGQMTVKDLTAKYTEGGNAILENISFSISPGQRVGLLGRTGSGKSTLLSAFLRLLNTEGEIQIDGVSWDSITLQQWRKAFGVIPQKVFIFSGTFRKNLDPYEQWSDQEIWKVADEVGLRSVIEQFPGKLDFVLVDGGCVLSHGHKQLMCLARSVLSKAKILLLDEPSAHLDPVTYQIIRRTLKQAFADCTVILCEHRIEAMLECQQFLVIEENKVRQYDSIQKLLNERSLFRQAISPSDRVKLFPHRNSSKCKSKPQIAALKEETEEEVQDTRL
row,Emax,SMILES
1,> 100%,"O=C(Nc1ccc2cc[nH]c2n1)C1(c2ccc3c(c2)OCO3)CC1 [Compound 1, 1-(benzo[d][1,3]dioxol-5-yl)-N-(1H-pyrrolo[2,3-b]pyridin-6-yl)cyclopropanecarboxamide]"
2,25 to 100%,"COc1ccc(C2(C(=O)Nc3ccc4[nH]c(C(C)(C)C)cc4n3)CC2)cc1 [Compound 2, N-(2-tert-butyl-1H-pyrrolo[3,2-b]pyridin-5-yl)-1-(4-methoxyphenyl)cyclopropanecarboxamide]"
3,25 to 100%,"COc1ccc(C2(C(=O)Nc3cnc4[nH]c(C(C)(C)C)cc4c3)CC2)cc1 [Compound 3, N-(2-tert-butyl-1H-pyrrolo[2,3-b]pyridin-5-yl)-1-(4-methoxyphenyl)cyclopropanecarboxamide]"
4,25 to 100%,"COc1cccc(C2(C(=O)Nc3ccc4[nH]c(C(C)(C)C)cc4n3)CC2)c1 [Compound 4, N-(2-tert-butyl-1H-pyrrolo[3,2-b]pyridin-5-yl)-1-(3-methoxyphenyl)cyclopropanecarboxamide]"
5,25 to 100%,COc1cccc(C2(C(=O)Nc3cnc4[nH]c(C(C)(C)C)cc4c3)CC2)c1 [Compound 5]
6,> 100%,CC(C)(C)c1cc2cc(NC(=O)C3(c4ccc5c(c4)OCO5)CC3)cnc2[nH]1 [Compound 6]
7,25 to 100%,CC(C)(C)c1cc2nc(NC(=O)C3(c4ccc5c(c4)OCO5)CC3)ccc2[nH]1 [Compound 7]
8,25 to 100%,CC(C)(C)c1cc2cc(NC(=O)C3(c4ccc5c(c4)OCO5)CC3)ncc2[nH]1 [Compound 8]
9,> 100%,"CCc1cc2cc(NC(=O)C3(c4ccc5c(c4)OC(F)(F)O5)CC3)ncc2[nH]1 [Compound 9, 1-(2,2-difluorobenzo[d][1,3]dioxol-5-yl)-N-(2-ethyl-1H-pyrrolo[2,3-c]pyridin-5-yl)cyclopropanecarboxamide]"
10,> 100%,"CC1(c2cc3cc(NC(=O)C4(c5ccc6c(c5)OC(F)(F)O6)CC4)ncc3[nH]2)CC1 [Compound 10, 1-(2,2-difluorobenzo[d][1,3]dioxol-5-yl)-N-(2-(1-methylcyclopropyl)-1H-pyrrolo[2,3-c]pyridin-5-yl)cyclopropanecarboxamide]"
11,> 100%,"O=C(Nc1cc2cc(C3CCC3)[nH]c2cn1)C1(c2ccc3c(c2)OC(F)(F)O3)CC1 [Compound 11, N-(2-cyclobutyl-1H-pyrrolo[2,3-c]pyridin-5-yl)-1-(2,2-difluorobenzo[d][1,3]dioxol-5-yl)cyclopropanecarboxamide]"
12,> 100%,"CC(C)(C)c1cc2nc(NC(=O)C3(c4ccc5c(c4)OC(F)(F)O5)CC3)ccc2[nH]1 [Compound 12, N-(2-tert-butyl-1H-pyrrolo[3,2-b]pyridin-5-yl)-1-(2,2-difluorobenzo[d][1,3]dioxol-5-yl)cyclopropanecarboxamide]"
13,> 100%,"CC(C)(C)c1cc2cc(NC(=O)C3(c4ccc5c(c4)OC(F)(F)O5)CC3)cnc2[nH]1 [Compound 13, N-(2-tert-butyl-1H-pyrrolo[2,3-b]pyridin-5-yl)-1-(2,2-difluorobenzo[d][1,3]dioxol-5-yl)cyclopropanecarboxamide]"
14,> 100%,"CC(C)(C)c1cc2cc(NC(=O)C3(c4ccc5c(c4)OC(F)(F)O5)CC3)ncc2[nH]1 [Compound 14, N-(2-tert-butyl-1H-pyrrolo[2,3-c]pyridin-5-yl)-1-(2,2-difluorobenzo[d][1,3]dioxol-5-yl)cyclopropanecarboxamide]"
15,> 100%,"CC(C)(C)c1cc2cc(NC(=O)C3(c4ccc5c(c4)OC(F)(F)O5)CC3)ncc2n1CCO [Compound 15, N-(2-tert-butyl-1-(2-hydroxyethyl)-1H-pyrrolo[2,3-c]pyridin-5-yl)-1-(2,2-difiuorobenzo[d][1,3]dioxol-5-yl)cyclopropanecarboxamide]"
